According to ChEMBL document CHEMBL1909046, “DrugMatrix in vitro pharmacology data”:

What follows are compounds tested against Carbonic anhydrase 2 (Homo sapiens, UniProt P00918) (assay: DRUGMATRIX: Carbonic Anhydrase II enzyme inhibition (substrate: 4-Nitrophenyl acetate (4-NPA))). Conditions: erythrocyte; Not Active = under 50% inhibition at 10 µM.
Assay type: tissue-based, Erythrocyte

Compound	IC50
OCCOCCN1CCN(C2=Nc3ccccc3Sc3ccccc32)CC1 [QUETIAPINE]	Not Active
COC(=O)[C@H]1[C@H]2C[C@@H]3c4[nH]c5cc(OC)ccc5c4CCN3C[C@H]2C[C@@H](OC(=O)c2cc(OC)c(OC)c(OC)c2)[C@@H]1OC [RESERPINE]	Not Active
O=C(O)c1ccccc1O [SALICYLIC ACID]	Not Active
C[S+]([O-])c1ccc(-c2nc(-c3ccncc3)c(-c3ccc(F)cc3)[nH]2)cc1 (centres undefined) [SB-203580]	Not Active
CC1CCC(NC(=O)N(CCCl)N=O)CC1 (centres undefined) [SEMUSTINE]	Not Active

These compounds were tested against T1, Alpha-1A adrenergic receptor (Rattus norvegicus, UniProt P43140) (assay: DRUGMATRIX: Alpha-1A adrenergic receptor radioligand binding (ligand: prazosin)). Conditions: Not Active = under 50% inhibition at 10 µM.
T1 sequence (P43140 whole entry): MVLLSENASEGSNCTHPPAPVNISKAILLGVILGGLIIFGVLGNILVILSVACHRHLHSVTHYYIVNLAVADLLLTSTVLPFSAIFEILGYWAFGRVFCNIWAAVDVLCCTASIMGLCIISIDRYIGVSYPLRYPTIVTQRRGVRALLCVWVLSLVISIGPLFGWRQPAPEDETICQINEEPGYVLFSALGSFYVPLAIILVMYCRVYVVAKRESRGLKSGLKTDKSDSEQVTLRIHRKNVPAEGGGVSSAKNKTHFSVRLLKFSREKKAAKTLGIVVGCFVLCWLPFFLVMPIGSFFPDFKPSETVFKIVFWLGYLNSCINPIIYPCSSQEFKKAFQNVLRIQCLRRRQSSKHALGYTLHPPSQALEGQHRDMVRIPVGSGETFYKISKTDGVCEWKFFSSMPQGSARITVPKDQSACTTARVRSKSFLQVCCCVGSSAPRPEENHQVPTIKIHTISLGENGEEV
Assay type: cell membranes, Wistar, Submaxillary gland, Membrane

Compound	IC50
COC(=O)[C@H]1[C@H]2C[C@@H]3c4[nH]c5cc(OC)ccc5c4CCN3C[C@H]2C[C@@H](OC(=O)c2cc(OC)c(OC)c(OC)c2)[C@@H]1OC [RESERPINE]	Not Active
O=C(O)c1ccccc1O [SALICYLIC ACID]	Not Active
C[S+]([O-])c1ccc(-c2nc(-c3ccncc3)c(-c3ccc(F)cc3)[nH]2)cc1 (centres undefined) [SB-203580]	Not Active
CC1CCC(NC(=O)N(CCCl)N=O)CC1 (centres undefined) [SEMUSTINE]	Not Active

The compounds below were run against Histamine H2 receptor (Homo sapiens, UniProt P25021). Conditions: cho-k1.
Chain of Histamine H2 receptor (P25021 whole entry): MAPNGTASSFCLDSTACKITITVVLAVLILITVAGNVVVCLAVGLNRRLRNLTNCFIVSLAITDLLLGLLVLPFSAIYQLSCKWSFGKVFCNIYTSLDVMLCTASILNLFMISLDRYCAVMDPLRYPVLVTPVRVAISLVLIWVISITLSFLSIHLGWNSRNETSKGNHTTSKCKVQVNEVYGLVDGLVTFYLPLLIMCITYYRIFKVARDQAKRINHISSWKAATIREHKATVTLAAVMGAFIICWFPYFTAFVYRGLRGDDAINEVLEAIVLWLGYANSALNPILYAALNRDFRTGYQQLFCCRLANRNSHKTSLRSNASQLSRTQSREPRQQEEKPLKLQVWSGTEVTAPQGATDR
Assay type: cell membranes, CHO-K1, Membrane

Compound	IC50
OCCOCCN1CCN(C2=Nc3ccccc3Sc3ccccc32)CC1 [QUETIAPINE]	Not Active
COC(=O)[C@H]1[C@H]2C[C@@H]3c4[nH]c5cc(OC)ccc5c4CCN3C[C@H]2C[C@@H](OC(=O)c2cc(OC)c(OC)c(OC)c2)[C@@H]1OC [RESERPINE]	Not Active
O=C(O)c1ccccc1O [SALICYLIC ACID]	Not Active
C[S+]([O-])c1ccc(-c2nc(-c3ccncc3)c(-c3ccc(F)cc3)[nH]2)cc1 (centres undefined) [SB-203580]	Not Active
CC1CCC(NC(=O)N(CCCl)N=O)CC1 (centres undefined) [SEMUSTINE]	Not Active

What follows are compounds tested against T2, Calcitonin receptor (Homo sapiens, UniProt P30988). Conditions: t47d.
T2 sequence (P30988 whole entry): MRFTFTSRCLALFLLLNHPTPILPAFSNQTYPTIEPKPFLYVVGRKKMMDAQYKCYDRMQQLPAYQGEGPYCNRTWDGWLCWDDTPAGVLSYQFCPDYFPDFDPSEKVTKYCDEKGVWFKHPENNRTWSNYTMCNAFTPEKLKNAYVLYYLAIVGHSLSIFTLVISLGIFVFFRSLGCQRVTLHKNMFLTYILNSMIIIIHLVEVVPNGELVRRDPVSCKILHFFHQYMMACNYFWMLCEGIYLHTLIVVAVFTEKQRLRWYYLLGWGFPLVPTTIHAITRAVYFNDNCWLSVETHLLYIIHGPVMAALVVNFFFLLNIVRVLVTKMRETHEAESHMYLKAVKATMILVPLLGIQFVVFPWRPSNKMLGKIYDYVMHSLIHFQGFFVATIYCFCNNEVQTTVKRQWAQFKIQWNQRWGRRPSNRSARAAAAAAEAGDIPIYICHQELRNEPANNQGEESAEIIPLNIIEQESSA
Assay type: cell membranes, Membrane

Compound	IC50
OCCOCCN1CCN(C2=Nc3ccccc3Sc3ccccc32)CC1 [QUETIAPINE]	Not Active
COC(=O)[C@H]1[C@H]2C[C@@H]3c4[nH]c5cc(OC)ccc5c4CCN3C[C@H]2C[C@@H](OC(=O)c2cc(OC)c(OC)c(OC)c2)[C@@H]1OC [RESERPINE]	Not Active
O=C(O)c1ccccc1O [SALICYLIC ACID]	Not Active
C[S+]([O-])c1ccc(-c2nc(-c3ccncc3)c(-c3ccc(F)cc3)[nH]2)cc1 (centres undefined) [SB-203580]	Not Active
CC1CCC(NC(=O)N(CCCl)N=O)CC1 (centres undefined) [SEMUSTINE]	Not Active

The compounds below were run against T3, Vasoactive intestinal polypeptide receptor 1 (Homo sapiens, UniProt P32241). Conditions: ht-29.
T3 sequence (P32241 whole entry): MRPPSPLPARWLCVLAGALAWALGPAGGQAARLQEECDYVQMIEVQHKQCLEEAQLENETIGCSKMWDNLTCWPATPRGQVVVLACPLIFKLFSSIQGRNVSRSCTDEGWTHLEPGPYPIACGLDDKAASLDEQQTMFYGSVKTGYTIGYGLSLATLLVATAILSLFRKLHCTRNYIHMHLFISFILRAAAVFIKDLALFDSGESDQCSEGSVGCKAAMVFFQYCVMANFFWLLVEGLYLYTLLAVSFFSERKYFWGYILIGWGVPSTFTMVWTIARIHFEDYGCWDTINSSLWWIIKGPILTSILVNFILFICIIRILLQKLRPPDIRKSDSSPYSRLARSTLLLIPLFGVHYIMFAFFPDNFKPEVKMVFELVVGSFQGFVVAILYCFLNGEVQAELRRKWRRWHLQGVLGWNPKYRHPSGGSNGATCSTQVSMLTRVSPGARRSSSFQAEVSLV
Assay type: cell membranes, Membrane

Compound	IC50
OCCOCCN1CCN(C2=Nc3ccccc3Sc3ccccc32)CC1 [QUETIAPINE]	Not Active
COC(=O)[C@H]1[C@H]2C[C@@H]3c4[nH]c5cc(OC)ccc5c4CCN3C[C@H]2C[C@@H](OC(=O)c2cc(OC)c(OC)c(OC)c2)[C@@H]1OC [RESERPINE]	Not Active
O=C(O)c1ccccc1O [SALICYLIC ACID]	Not Active
C[S+]([O-])c1ccc(-c2nc(-c3ccncc3)c(-c3ccc(F)cc3)[nH]2)cc1 (centres undefined) [SB-203580]	Not Active
CC1CCC(NC(=O)N(CCCl)N=O)CC1 (centres undefined) [SEMUSTINE]	Not Active

Each compound was assayed against T4, Angiotensin-converting enzyme (Oryctolagus cuniculus, UniProt P12822). Conditions: not given.
T4 sequence (P12822 whole entry): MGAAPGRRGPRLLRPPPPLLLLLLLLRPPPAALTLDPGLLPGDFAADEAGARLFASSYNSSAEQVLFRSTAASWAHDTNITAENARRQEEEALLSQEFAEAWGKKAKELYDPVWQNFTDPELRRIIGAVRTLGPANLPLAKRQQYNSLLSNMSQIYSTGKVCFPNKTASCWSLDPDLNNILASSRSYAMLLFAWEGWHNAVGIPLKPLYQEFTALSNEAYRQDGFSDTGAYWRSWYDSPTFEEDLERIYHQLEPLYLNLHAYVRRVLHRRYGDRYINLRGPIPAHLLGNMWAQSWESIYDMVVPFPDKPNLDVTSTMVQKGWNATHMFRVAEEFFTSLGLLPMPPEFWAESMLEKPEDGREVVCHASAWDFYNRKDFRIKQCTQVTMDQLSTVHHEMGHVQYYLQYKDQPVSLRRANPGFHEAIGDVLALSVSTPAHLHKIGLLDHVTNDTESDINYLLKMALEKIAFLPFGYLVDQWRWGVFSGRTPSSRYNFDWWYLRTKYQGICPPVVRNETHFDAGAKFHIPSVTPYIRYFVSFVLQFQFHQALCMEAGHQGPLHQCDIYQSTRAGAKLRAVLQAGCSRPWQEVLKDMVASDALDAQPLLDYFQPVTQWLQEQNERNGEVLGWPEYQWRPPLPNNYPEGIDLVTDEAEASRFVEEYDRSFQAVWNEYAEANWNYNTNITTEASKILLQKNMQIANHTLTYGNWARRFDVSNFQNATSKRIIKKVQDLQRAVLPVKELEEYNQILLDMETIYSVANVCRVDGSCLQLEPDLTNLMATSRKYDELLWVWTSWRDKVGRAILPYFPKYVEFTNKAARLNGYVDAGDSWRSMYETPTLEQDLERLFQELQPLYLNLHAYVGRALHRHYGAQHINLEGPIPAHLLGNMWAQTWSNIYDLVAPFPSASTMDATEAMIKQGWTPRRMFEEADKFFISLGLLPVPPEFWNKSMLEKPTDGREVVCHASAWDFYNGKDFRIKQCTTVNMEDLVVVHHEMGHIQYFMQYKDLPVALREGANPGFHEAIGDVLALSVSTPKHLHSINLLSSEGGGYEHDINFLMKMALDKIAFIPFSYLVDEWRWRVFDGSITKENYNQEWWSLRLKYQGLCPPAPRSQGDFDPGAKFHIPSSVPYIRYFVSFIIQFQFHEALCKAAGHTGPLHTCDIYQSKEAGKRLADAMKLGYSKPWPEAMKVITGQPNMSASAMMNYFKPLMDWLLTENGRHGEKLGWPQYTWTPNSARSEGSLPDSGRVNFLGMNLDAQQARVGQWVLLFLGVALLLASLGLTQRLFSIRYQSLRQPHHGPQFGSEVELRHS
Assay type: tissue-based, Lung

Compound	IC50
OCCOCCN1CCN(C2=Nc3ccccc3Sc3ccccc32)CC1 [QUETIAPINE]	Not Active
COC(=O)[C@H]1[C@H]2C[C@@H]3c4[nH]c5cc(OC)ccc5c4CCN3C[C@H]2C[C@@H](OC(=O)c2cc(OC)c(OC)c(OC)c2)[C@@H]1OC [RESERPINE]	Not Active
O=C(O)c1ccccc1O [SALICYLIC ACID]	Not Active
C[S+]([O-])c1ccc(-c2nc(-c3ccncc3)c(-c3ccc(F)cc3)[nH]2)cc1 (centres undefined) [SB-203580]	Not Active
CC1CCC(NC(=O)N(CCCl)N=O)CC1 (centres undefined) [SEMUSTINE]	Not Active
